# Test results published in patent US4735953A, “Pharmaceutical preparation for learning stimulation and memory improvement” (priority 1986, dated 1988).
# Columns and labels:
# [1] = system: learning ability of rats in a shuttle chamber; test: Active avoidance learning in a shuttle chamber, rats; type: in vivo, rat; conditions: rats, hypodermally 100 mg/kg
# Text: (§1) In these experiments rats are taught to avoid an electric shock by escaping into a next chamber communicating with the first chamber by means of a special opening--a door. An electric current is applied to the chamber door consisting of metal plates. A conditional irritator is a light signal together with a sound click. The learning series consisted of 50 combinations. The number of combinations necessary for the animal's learning to escape into another chamber in response to the conditional signal was determined. Five correct responses out of 6 where regarded as the proof of stability of the acquired knowledge and were denoted as a "learning criterion". After 7 days the educational procedure was repeated, and again the number of combinations necessary to acquire the "learning criterion" was determined. In the case of difference between the first and second readings the percentage of retention of the acquired knowledge was calculated.
# (§2) In this experiment the effect of the preparation according to the present invention and prior art preparations was separately evaluated for the purpose of comparison on well-learning and on specially selected poorly learning rats. […] To the poorly learning rats the animals were assigned which reached no "learning criterion" in the teaching series of 50 combinations, or, in other words, a stable knowledge of active avoidance was not worked out in them. […] The preparation according to the present invention and the prior art comparison preparations were administered before the first teaching series or thereafter.
# (§3) Also studied were the effects produced upon a single and repeated administration of the preparation according to the present invention for 14 days.
# [2] = system: learning ability of rats preliminarily sorted out for poor learning ability; test: Active avoidance learning in a shuttle chamber, rats sorted out for poor learning ability; type: in vivo, rat; conditions: poorly learning rats, hypodermally 100 mg/kg
# Text: as §1, §2, §3
# [3] = system: rabbit's brain hemispheres; test: Amplitude of induced potential in brain hemispheres (acoustic irritation); type: in vivo; conditions: rabbits
# Method: (§4) In the third series of experiments the effect of the preparation according to the present invention on the functional brain asymmetry was studied. The experiments were carried out on rabbits with electrodes implanted in the brain. The electrodes under nembutal narcosis (40 mg/kg) were implanted strictly symmetrically into the bearing zone of the temporal cortex of the right and left hemispheres on its lateral surface, whereas the indifferent electrode was secured to the nasal bones of a rabbit's skull. The acoustic irritation was applied through earphones. As the acoustic irritation a sound click caused by a square-shaped pulse from an electronic stimulator with a frequency of 0.1-0.2 Hz was used; the click intensity was adjusted within the range of from 5 to 80 Db. The amplification of the taken-off biopotentials was effected on an electroencephalograph; the induced potentials were obtained by means of an analyzer. 100 experiments on 20 animals were thus conducted; the interval between experiments on one animal was 7 days. The amplitude and form of the induced potential were determined. The asymmetry factor (Kas) was calculated by the formula: [formula] Ar --amplitude of the induced potential of the […] hemisphere, μV;
# (§5) A1 --amplitude of the induced potential of the left hemisphere.
# (§6) The test preparations were administered hypodermally in the form of 0.5-1.5% aqueous solutions 20 minutes before the beginning of the measurements.
# [4] = system: cerebral cortex of rabbits; test: Asymmetry factor by induced potential in the hearing zone of the cerebral cortex; type: in vivo, rabbit
# Method: as §4, §5, §6
# [5] = system: learning ability of mice in a shuttle chamber; test: Learning ability of mice in a shuttle chamber; type: in vivo, mouse; conditions: mice
# patients = test: Clinical study on patients with memory disorders, compared to pyracetam; type: in vivo, human
# Text: The preparation according to the present invention was studied in clinics on 130 patients.
# As regards diagnosis and sex the patients were distributed as follows:
# skull-brain traumata with memory disturbance: 75 patients (52 men and 23 women)
# Alzheimer's disease: 15 patients (3 men and 12 women)
# Pick's disease: 5 patients (5 men)
# Senile dementia: 15 patients (4 men and 11 women)
# Vascular dementia (cerabral atero-sclerosis, hypertonic disease): 20 patients (7 men and 13 women)
# In the group of patients with skull-brain trauma the patient's age varied from 17 to 60 years, in the other patients--from 52 to 75 years.
# In addition to clinico-psychopathological methods of investigation, all the patients were subjected to neuropsychological studies during which specific tasks were offered them to solve. In doing so, the response was assessed against a 4-points scale: 3--maximally pronounced disorder, full or substantially full incapability to deal with the task set; 2--a medium degree of manifestation of the deficiency, solving the task with the experimentator's assistance; 1--minor errors, independent correction of mistakes; 0--lack of disturbances.
# The treatment course duration is 30-60 days. In the case of an acute skull-brain trauma (65 patients) the treatment started 15-20 days after the moment of trauma and lasted for 20-30 days.
# It is known that the function of memory has a complex brain organization and different zones of brains take part in its regulation. During the studies a multi-faceted assessment of the memory function was carried out; there were assessed: (1) mnestic component of the environmental orientation of a patient; (2) involuntary memory for current events; (3) intentional exo-experimental memory; (4) volume and soundness of audio-speaking memory; (5) volume and soundness of visual memory; (6) operative memory; (7) memory for knowledge acquired before the disease.
# [6] = hypodermally 10 mg/kg, 12 day (retention)
# [7] = hypodermally 30 mg/kg, 12 day (retention)
# [8] = hypodermally 100 mg/kg, 1st day
# [9] = hypodermally 100 mg/kg, 12 day (retention)
# [10] = per os 30 mg/kg, 12 day (retention)
# [11] = per os 100 mg/kg, 12 day (retention)
structure (smiles),measurement,setting,value
"NC(=O)CN1CCCC1=O [Pyracetam, pyracetam]","Number of combinations to reach the ""learning criterion"" in II teaching series (after 7 days)",[1],4.7 ± 0.9
same,"Number of combinations to reach the ""learning criterion"" in the I teaching series",[1],20.8 ± 1.2
same,Number of non-taught animals in the group,[1],1/20
same,Percentage knowledge retention,[1],70%
same,% of knowledge retention,[2],26%
same,"Number of combinations till appearance of ""learning criterion"", I teaching",[2],30.3 ± 2.5
same,"Number of combinations till appearance of ""learning criterion"", II-checking of retention of knowledge",[2],22.4 ± 2.1
same,Number of untaught animals in the group,[2],9/20
same,amplitude of induced potentials (in words),[3],failed to influence all these characteristics
same,asymmetry factor (in words),[4],failed to influence all these characteristics
same,"Asymmetry factor, Preparation","[4]; hypodermally 100 mg/kg, control 0.19 ± 0.03",0.213 ± 0.05
same,learning and memory (in words),[5]; hypodermally,"improves learning, but not memory"
same,"% of avoidance reactions, group I","[5]; hypodermally 10 mg/kg, 1st day",23%
same,"% of avoidance reactions, group II","[5]; hypodermally 10 mg/kg, 1st day",33%
same,"% of avoidance reactions, group III","[5]; hypodermally 10 mg/kg, 1st day",48%
same,"% of avoidance reactions, group IV","[5]; hypodermally 10 mg/kg, 1st day",52%
same,"% of avoidance reactions, group V","[5]; hypodermally 10 mg/kg, 1st day",60%
same,"% of avoidance reactions, group VI","[5]; hypodermally 10 mg/kg, 1st day",61%
same,"% of avoidance reactions, group I",[5]; [6],60%
same,"% of avoidance reactions, group II",[5]; [6],78%
same,"% of avoidance reactions, group III",[5]; [6],80%
same,"% of avoidance reactions, group IV",[5]; [6],79%
same,"% of avoidance reactions, group V",[5]; [6],80%
same,"% of avoidance reactions, group VI",[5]; [6],78%
same,"% of avoidance reactions, group I","[5]; hypodermally 30 mg/kg, 1st day",20%
same,"% of avoidance reactions, group II","[5]; hypodermally 30 mg/kg, 1st day",32%
same,"% of avoidance reactions, group III","[5]; hypodermally 30 mg/kg, 1st day",55%
same,"% of avoidance reactions, group IV","[5]; hypodermally 30 mg/kg, 1st day",67%
same,"% of avoidance reactions, group V","[5]; hypodermally 30 mg/kg, 1st day",70%
same,"% of avoidance reactions, group VI","[5]; hypodermally 30 mg/kg, 1st day",75%
same,"% of avoidance reactions, group I",[5]; [7],60%
same,"% of avoidance reactions, group II",[5]; [7],80%
same,"% of avoidance reactions, group III",[5]; [7],82%
same,"% of avoidance reactions, group IV",[5]; [7],81%
same,"% of avoidance reactions, group V",[5]; [7],84%
same,"% of avoidance reactions, group VI",[5]; [7],88%
same,"% of avoidance reactions, group I",[5]; [8],24%
same,"% of avoidance reactions, group II",[5]; [8],41%
same,"% of avoidance reactions, group III",[5]; [8],55%
same,"% of avoidance reactions, group IV",[5]; [8],70%
same,"% of avoidance reactions, group V",[5]; [8],72%
same,"% of avoidance reactions, group VI",[5]; [8],74%
same,"% of avoidance reactions, group I",[5]; [9],62%
same,"% of avoidance reactions, group II",[5]; [9],90%
same,"% of avoidance reactions, group III",[5]; [9],92%
same,"% of avoidance reactions, group IV",[5]; [9],90%
same,"% of avoidance reactions, group V",[5]; [9],90%
same,"% of avoidance reactions, group VI",[5]; [9],92%
same,effect upon per os administration (in words),[5]; per os,the effect is noticeably reduced
same,"% of avoidance reactions, group I","[5]; per os 30 mg/kg, 1st day",11%
same,"% of avoidance reactions, group II","[5]; per os 30 mg/kg, 1st day",17%
same,"% of avoidance reactions, group III","[5]; per os 30 mg/kg, 1st day",31%
same,"% of avoidance reactions, group IV","[5]; per os 30 mg/kg, 1st day",32%
same,"% of avoidance reactions, group V","[5]; per os 30 mg/kg, 1st day",33%
same,"% of avoidance reactions, group VI","[5]; per os 30 mg/kg, 1st day",40%
same,"% of avoidance reactions, group I",[5]; [10],48%
same,"% of avoidance reactions, group II",[5]; [10],70%
same,"% of avoidance reactions, group III",[5]; [10],71%
same,"% of avoidance reactions, group IV",[5]; [10],78%
same,"% of avoidance reactions, group V",[5]; [10],78%
same,"% of avoidance reactions, group VI",[5]; [10],81%
same,"% of avoidance reactions, group I","[5]; per os 100 mg/kg, 1st day",21%
same,"% of avoidance reactions, group II","[5]; per os 100 mg/kg, 1st day",22%
same,"% of avoidance reactions, group III","[5]; per os 100 mg/kg, 1st day",32%
same,"% of avoidance reactions, group IV","[5]; per os 100 mg/kg, 1st day",42%
same,"% of avoidance reactions, group V","[5]; per os 100 mg/kg, 1st day",43%
same,"% of avoidance reactions, group VI","[5]; per os 100 mg/kg, 1st day",52%
same,"% of avoidance reactions, group I",[5]; [11],69%
same,"% of avoidance reactions, group II",[5]; [11],80%
same,"% of avoidance reactions, group III",[5]; [11],82%
same,"% of avoidance reactions, group IV",[5]; [11],79%
same,"% of avoidance reactions, group V",[5]; [11],78%
same,"% of avoidance reactions, group VI",[5]; [11],78%
same,effect on the functional symmetry of the brain and activity of the dominating hemisphere,patients; experimental and clinical studies,no such effect
same,character of recovery (in words),patients; patients,uniform regression of all available disorders
